The structures appear in SMILES notation. Marks after values point to notes of the source that are not given here.

For data set [1], the target named is T1, human estrogen receptor α (hERα) (Homo sapiens, UniProt P03372).
T1 sequence (P03372 1-595): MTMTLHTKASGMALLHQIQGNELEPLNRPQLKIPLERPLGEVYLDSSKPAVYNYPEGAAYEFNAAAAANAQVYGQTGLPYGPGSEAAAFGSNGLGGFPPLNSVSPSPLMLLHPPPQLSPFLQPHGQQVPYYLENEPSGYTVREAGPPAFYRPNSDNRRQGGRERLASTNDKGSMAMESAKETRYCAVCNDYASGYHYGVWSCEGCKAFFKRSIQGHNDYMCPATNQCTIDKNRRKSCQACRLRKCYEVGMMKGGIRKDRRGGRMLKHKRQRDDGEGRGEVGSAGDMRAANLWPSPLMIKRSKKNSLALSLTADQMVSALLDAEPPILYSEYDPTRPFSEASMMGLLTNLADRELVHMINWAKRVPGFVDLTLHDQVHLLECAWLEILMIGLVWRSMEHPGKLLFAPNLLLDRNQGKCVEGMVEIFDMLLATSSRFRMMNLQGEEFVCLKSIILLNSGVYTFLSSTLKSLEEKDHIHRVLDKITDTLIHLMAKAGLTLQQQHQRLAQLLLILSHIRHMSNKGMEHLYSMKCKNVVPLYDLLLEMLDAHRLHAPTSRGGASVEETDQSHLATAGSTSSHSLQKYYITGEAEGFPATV
Description: antagonistic activity in CHO cells co-transfected with hERα, rat oxytocin promoter and luciferase reporter gene. The format is cell-based. Particulars: antagonism of 17β-estradiol-induced transactivation, CHO-hERα-RO-LUC; read-out: ERα pIC50 (converted). The procedure, abridged:
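Recombinant CHO cells stably carrying hERα, rat oxytocin promoter and luciferase reporter, with receptor activated by 17β-estradiol. Antagonist efficacy given as maximal inhibition relative to that of the reference anti-estrogen ICI 164,384.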

In data set [2] the target is T2, estrogen receptor alpha (Homo sapiens, UniProt P03372).
T2 construct: endogenous in cells; host or cells: T47D human breast cancer cells (ATCC)
T2 sequence (P03372 1-595): T1 sequence (P03372 1-595)
The data set can be described thus: ERα downregulation assay in T47D breast cancer cells (ERα ELISA). It counts as cell-based. Particulars: 24 hours; for DR (%): downregulation of ERα relative to fulvestrant (100%), 1E-5 M, negative = upregulation. The method in brief:
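T47D cells were treated with 1E-5 M test compound for 24 hours, then lysed in the well. ERα protein content was measured by ELISA. Efficacy is given as fraction of maximal response relative to fulvestrant, defined as 100% downregulation.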

Data set [3] relates to MCF-7H cells. Description: 7-day in vitro proliferation assay in tamoxifen-resistant MCF-7H breast cancer cells (methyl-3H-thymidine incorporation). It counts as cell-based, human. The settings on record: for Emax: Homo sapiens, MCF7, 168 h, efficacy (fraction of maximal response relative to E2) in MCF-7H proliferation, read-out: MCF7 ia; for Efficacy (fractional to E2): fraction of maximal response, E2 = 1.00 per definition; for Efficacy (fractional to E2) / % E2: MCF-7H; for % E2: relative potency to induce proliferation, normalized against E2 (=100 per definition); for induce proliferation of MCF-7H breast cancer cells: potency range and efficacy in words. How it is done: To what extent compounds are capable of stimulating proliferation in ER-positive, tamoxifen-resistant breast cancer cells is tested in a 7-day in vitro proliferation assay using MCF-7H cells. More specifically, this in vitro bioassay is used to determine the efficacy (fraction of maximal response), pEC50, and relative potency of the compound to induce proliferation by comparing the data for this compound with those of the reference compound 17β-estradiol (E2) in the same test.
A more detailed description of the method used is as follows.
Cell culture: The human epithelial breast cancer cell line MCF-7H (origin: Hubrecht Laboratory, Utrecht, The Netherlands) was routinely maintained in complete medium which is a 1:1 mixture of Ham's F12 medium and Dulbecco's Modified Eagle Medium (DMEM; Invitrogen, Carlsbad, USA) without phenol red and enriched with 5% fetal calf serum (FCS; Hyclone, Utah, USA), 100 μg/ml streptomycin and 100 units/ml penicillin adapted to contain:
Cells were grown in 80 cm^2 culture flasks (Nunc, Roskilde, Denmark) and kept in an atmosphere of 5% CO2-95% air at 37 degrees Celsius. Cells were subcultured when they reached about 80-90% confluence, resulting in one passage a week. Subculturing includes detaching the cells using trypsin/EDTA and diluting the cell suspension 10 times.
Methyl-^3H-thymidine incorporation assay: MCF-7H cells were starved overnight in assay medium containing 5% charcoal-treated (CT) bovine calf serum (BCS; Hyclone) instead of FCS and a final concentration of 1.0 μg/ml bovine insulin, the day before plating. Cells were plated in assay medium containing 5% CT BCS, in white 24-wells plates (Perkin Elmer, Shelton, USA), at a density of 7.5×10^3 cells per well, each well containing 630 μL assay medium. Cells were allowed to attach and spread for 24 h before stimulation with reference and/or test compound(s). After a stimulation period of 7 days, 0.25 μCi/well of methyl-^3H-thymidine (GE Healthcare Limited, Buckinghamshire, UK) was added per well. Cultures were maintained in an atmosphere of 5% CO2-95% air at 37 degrees Celsius. After overnight incubation, excess methyl-^3H-thymidine was aspirated and the cells were washed with phosphate-buffered saline (PBS). After 1 h of incubation with 1 ml scintillation fluid Microscint-20 (Perkin Elmer), radioactivity was measured in a Packard TOP-count NXT microplate scintillation counter (Perkin Elmer).
For orientation: Incorporation of labelled thymidine or its analogues reports DNA synthesis.

Data set [4] can be described thus: Rapid Rat PK after oral administration. It counts as in vivo, rats (Rattus Norvegicus). The settings on record: 20 umol/kg, plasma, oral 20 μmol/kg; for AUC: AUC(0-6h), read-out: RRat AUC; for Cmax: read-out: RRat Cmax. How it is done: In the context of the present invention with “orally bioavailable” is meant that compounds, when dosed orally to a rat show oral exposure as determined by quantification of compound plasma levels in that rat. Typically, compounds are dosed orally at 20 μmol/kg, as described in Example 14 hereinbelow. Oral exposure is determined by measuring plasma levels over the time range of 0-6 h after dosing and is expressed by AUC(0-6h).
This test was used to determine the pharmacokinetic parameters (AUC(0-6h), Cmax and Tmax) after oral administration of compounds in male (intact or castrated) or female (intact or ovariectomized) rats (Rattus Norvegicus).
After oral administration of a compound at 20 μmol/kg, blood was collected at various time points (0.5, 1, 2, 3, 4 and 6 hours after compound administration) via the tail vein. Plasma samples were pooled per time point, after which the concentration was determined in plasma by means of LC-MS. Pharmacokinetic parameters (AUC(0-6h), Cmax and Tmax) were derived from the obtained concentration versus time curves using the non-compartmental analysis module in Animals! or WinNonlin.

As to `CCCN1CC(Oc2ccc(C(=O)c3c(-c4ccccc4C)nsc3-c3ccc(O)cc3)cc2)C1.Cl` [compound 7bb, (5-(4-hydroxyphenyl)-3-o-tolylisothiazol-4-yl)(4-(1-propylazetidin-3-yloxy)-phenyl)methanone hydrochloride], the IC50 in data set [1] was 2 nM. Further, in data set [2], the “DR (%)” value was determined as 90%. Moreover, in data set [3], the Emax is 3%.
For `CCCN1CC(Oc2ccc(-c3c(-c4ccc(O)cc4)sc4cc(O)ccc34)cc2)C1.O=C(O)C(F)(F)F` [compound 6b, 2-(4-hydroxyphenyl)-3-(4-(1-propylazetidin-3-yloxy)phenyl)benzo[b]thiophen-6-ol 2,2,2-trifluoroacetate], in that order: 0.794 nM, 53% and 10%.
As to `COc1ccc(-c2sc3cc(O)ccc3c2Oc2ccc(OCCN3CCCCC3)cc2)cc1` [Arzoxifene], in data set [3], the “Efficacy (fractional to E2)” value was determined as 0.34 and the “% E2” value was 99.1%.
The term AUC denotes the area under the concentration-time curve, a measure of exposure. One may read the Cmax as the maximum level reached in the sampled fluid or tissue. On to `CC(C)CN1CC(Oc2ccc(-c3c(-c4ccccc4Cl)noc3-c3ccc(O)cc3)cc2)C1.Cl` [compound 7w, 4-(3-(2-chlorophenyl)-4-(4-(1-isobutylazetidin-3-yloxy)phenyl)isoxazol-5-yl)-phenol hydrochloride], for which, in data set [1], the IC50 is 0.316 nM. Further, the “DR (%)” value in data set [2] is 32%. Moreover, in data set [4], the AUC came to 1.55 µM·h and the Cmax came to 520 nM.
As for `O=C(c1ccc(OCCN2CCCCC2)cc1)c1c(-c2ccc(O)cc2)sc2cc(O)ccc12` [Raloxifene], in data set [3], the “Efficacy (fractional to E2)” value is 0.33 and the “% E2” value amounted to 21.1%.
For `CCCN1CC(Oc2ccc(C(=O)c3c(-c4ccc(O)cc4)noc3-c3ccccc3C)cc2)C1.Cl` [compound 7az, (3-(4-hydroxyphenyl)-5-o-tolylisoxazol-4-yl)(4-(1-propylazetidin-3-yloxy)-phenyl)methanone hydrochloride], in data set [1], the IC50 was 6.31 nM. Moreover, in data set [2], the “DR (%)” value worked out at 88%. For the same molecule, in data set [3], the Emax was 8%.
For `CCCN1CC(Oc2ccc(C(=O)c3c(-c4ccc(O)cc4)sc4cc(O)ccc34)cc2)C1.O=C(O)C(F)(F)F` [compound 6d, (6-hydroxy-2-(4-hydroxyphenyl)benzo[b]thiophen-3-yl)(4-(1-propylazetidin-3-yloxy)phenyl)methanone 2,2,2-trifluoroacetate], in that order: 1.58 nM, 79% and 5%.
`C[C@]12CC[C@@H]3c4ccc(O)cc4C[C@@H](CCCCCCCCC[S+]([O-])CCCC(F)(F)C(F)(F)F)[C@H]3[C@@H]1CC[C@@H]2O` (stereo partly drawn) [Fulvestrant]: the “Downregulation (% of fulvestrant)” value in data set [2] (1E-5 M test compound, fulvestrant = 100 per definition, negative number = upregulation or stabilization) is reported as 100 ^a %. Besides, in data set [3], the “Efficacy (fractional to E2)” value was 0.02 and the “% E2” value is recorded as 18.9%.
In the case of `CC/C(=C(\c1ccc(O)cc1)c1ccc(OCCN(C)C)cc1)c1ccccc1` [4OHT, 4-OH-tamoxifen], in data set [3], the “Efficacy (fractional to E2)” value turned out to be 0.49 and the “% E2” value came to 2.3%.
On to `CC/C(=C(/c1ccc(OCCN(C)C)cc1)c1cccc(O)c1)c1ccccc1` [Droloxifene], for which, in data set [3], the “Efficacy (fractional to E2)” value is reported as 0.38 and the “% E2” value was 5.9%.
Take `CCCN1CC(Oc2ccc(C(=O)c3c(-c4c(F)cccc4F)noc3-c3ccc(O)cc3)cc2)C1.Cl` [compound 7ak, (3-(2,6-difluorophenyl)-5-(4-hydroxyphenyl)isoxazol-4-yl)(4-(1-propylazetidin-3-yloxy)phenyl)methanone hydrochloride]: the IC50 in data set [1] is 3.16 nM. In addition, in data set [2], the “DR (%)” value stood at 93%. The Emax in data set [3] turned out to be 7%.
For the molecule `Cl.Oc1ccc(-c2onc(-c3ccccc3Cl)c2-c2ccc(OC3CN(CC4CC4)C3)cc2)cc1` [compound 7y, 4-(3-(2-chlorophenyl)-4-(4-(1-(cyclopropylmethyl)azetidin-3-yloxy)phenyl)-isoxazol-5-yl)phenol hydrochloride], the IC50 in data set [1] is 0.316 nM. In data set [2], the “DR (%)” value was determined as 57%. For the same molecule, in data set [4], the AUC amounted to 1.2 µM·h and the Cmax came out at 290 nM.
Regarding `CCCN1CC(Oc2ccc(C(=O)c3c(-c4ccccc4Cl)noc3-c3ccc(O)cc3)cc2)C1.Cl` [compound 6m, (3-(2-chlorophenyl)-5-(4-hydroxyphenyl)isoxazol-4-yl)(4-(1-propylazetidin-3-yloxy)phenyl)methanone hydrochloride], the IC50 in data set [1] is 2 nM. Besides, the “DR (%)” value in data set [2] stood at 81%. In data set [3], the Emax is 7%.
Regarding `C[C@]12CC[C@@H]3c4ccc(O)cc4CC[C@H]3[C@@H]1CC[C@@H]2O` [E2, 17β-estradiol], in data set [3], the “Efficacy (fractional to E2)” value is listed as 1.00 ^a; the “induce proliferation of MCF-7H breast cancer cells” value was “in the picomolar range and with full efficacy”; the “% E2” value was 100 ^a %.
Take `CCCN1CC(Oc2ccc([C@@H]3c4ccc(O)cc4CC[C@@H]3c3ccccc3)cc2)C1.Cl` [compound 6q, (5R,6S)-6-phenyl-5-(4-(1-propylazetidin-3-yloxy)phenyl)-5,6,7,8-tetrahydronaphthalen-2-ol hydrochloride]: the IC50 in data set [1] is 0.251 nM. The “DR (%)” value in data set [2] was determined as 47%. The Emax in data set [3] is 6%.
Regarding `C#C[C@]1(O)CC[C@H]2[C@@H]3CCc4cc(O)ccc4[C@H]3CC[C@@]21C` [EE, Ethynyl Estradiol], in data set [3], the “Efficacy (fractional to E2)” value is 0.99; the “induce proliferation of MCF-7H breast cancer cells” value is “in the picomolar range and with full efficacy”; the “% E2” value was 137%.
Regarding `CC/C(=C(\c1ccccc1)c1ccc(OCCN(C)C)cc1)c1ccccc1` [Tamoxifen], in data set [3], the “Efficacy (fractional to E2)” value is 0.58 and the “% E2” value was found to be 0.008%.
For `O=C(c1ccc(OC2CN(CCCF)C2)cc1)c1c(-c2ccccc2Cl)noc1-c1ccc(O)cc1` [compound 7ah], in data set [1], the IC50 was 2.51 nM. In data set [2], the “DR (%)” value was 94%. In addition, in data set [3], the Emax was 6%.

(Values after patent publication US9540361B2, “N-substituted azetidine derivatives” (Merck Sharp & Dohme B.V., priority 2010, dated 2017).)
